# Patent US9669003B2, “Use of flavone and flavanone derivatives in preparation of sedative and hypnotic drugs” (priority 2012, dated 2017)
# Marks after values point to notes of the source that are not given here.
# Tests used:
# Format in all cases: in vivo
# Kunming mice [1] = experiment: Influence on hypnosis effect with pentobarbital sodium doses below the threshold (25 mg/kg i.p.); details: pentobarbital sodium 25 mg/kg i.p. 60 min later, sleep observed in 30 min, n = 10
# How it was run: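 Percentage of mice sleeping within 30 min after subthreshold pentobarbital sodium (25 mg/kg i.p.), defined by loss of righting reflex over 1 min, analysed by χ2. Compound in 0.5% CMC-Na given intragastrically at 25/50/100 mg/kg 60 min before; groups of 10 Kunming mice, both sexes.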
# Kunming mice [2] = experiment: Influence on autonomic activity of normal mice (ZIL-2 mice autonomic activity meter, counts within 10 min); details: intragastric, x ± s; for Times of activities in 1 h after drug administration/10 min: 1 h after administration; for Times of activities in 2 h after drug administration/10 min: 2 h after administration; for Times of activities in 24 h after drug administration/10 min: 24 h after administration
# How it was run: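 Activity counts during a 10-min window were taken at 1, 2 and 24 h after dosing in groups of 10 mixed-sex Kunming mice. Compounds were given in 0.5% CMC-Na at 25, 50 or 100 mg/kg. Statistics used Levene's homogeneity test, ANOVA and Dunnett's multiple comparisons.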
# Kunming mice [3] = experiment: Influence on hypnosis effect with pentobarbital sodium doses at the threshold (50 mg/kg i.p.); details: pentobarbital sodium 50 mg/kg i.p. 60 min later, x ± s, n = 10
# How it was run: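 Pentobarbital sodium (0.3%, 50 mg/kg i.p.) injected 60 min after a single intragastric dose (25, 50, 100 mg/kg, 0.5% CMC-Na vehicle) in Kunming mice, 10 per group, sexes balanced. Onset and length of sleep (righting reflex lost over 1 min) analysed by ANOVA; sleeping incidence by χ2 test.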
# [4] = test drug 25 mg/kg intragastric single dose
# [5] = test drug 50 mg/kg intragastric single dose
# [6] = test drug 100 mg/kg intragastric single dose
# [7] = 25 mg/kg intragastric single dose
# [8] = 50 mg/kg intragastric single dose
# [9] = 100 mg/kg intragastric single dose
SMILES,Number of sleeping animals (Kunming mice [1]; [4]),rate of sleeping (%) (Kunming mice [1]; [4]),Number of sleeping animals (Kunming mice [1]; [5]),rate of sleeping (%) (Kunming mice [1]; [5]),Number of sleeping animals (Kunming mice [1]; [6]),rate of sleeping (%) (Kunming mice [1]; [6]),"Times of activities in 1 h after drug administration/10 min (Kunming mice [2]; 25 mg/kg, n = 10)","Times of activities in 2 h after drug administration/10 min (Kunming mice [2]; 25 mg/kg, n = 10)","Times of activities in 24 h after drug administration/10 min (Kunming mice [2]; 25 mg/kg, n = 10)","Times of activities in 1 h after drug administration/10 min (Kunming mice [2]; 50 mg/kg, n = 10)","Times of activities in 2 h after drug administration/10 min (Kunming mice [2]; 50 mg/kg, n = 10)","Times of activities in 24 h after drug administration/10 min (Kunming mice [2]; 50 mg/kg, n = 10)","Times of activities in 1 h after drug administration/10 min (Kunming mice [2]; 100 mg/kg, n = 10)","Times of activities in 2 h after drug administration/10 min (Kunming mice [2]; 100 mg/kg, n = 10)",duration of sleep (Kunming mice [3]; [7]),time to sleep (Kunming mice [3]; [7]),duration of sleep (Kunming mice [3]; [8]),time to sleep (Kunming mice [3]; [8]),duration of sleep (Kunming mice [3]; [9]),time to sleep (Kunming mice [3]; [9]),also measured
C=Cc1c(C#N)cc(-c2cc(=O)c3c(C=CC)cc(Cc4ccccc4)cc3o2)cc1[N+](=O)[O-] [Example 20],4,40* %,6,60** %,6,60** %,320.3 ± 49.7 /10 min,293.6 ± 45.1 /10 min,317.4 ± 79.6 /10 min,283.7 ± 51.3 /10 min,278.6 ± 47.5 /10 min,305.2 ± 75.4 /10 min,267.2 ± 55.3 /10 min,250.3 ± 47.1 /10 min,38.67 ± 21.87 min,4.33 ± 1.58 min,66.34 ± 22.15 min,3.36 ± 1.20 min,68.09 ± 29.56 min,3.18 ± 1.10 min,"Times of activities in 24 h after drug administration/10 min (Kunming mice [2]; 100 mg/kg, n = 10): 305.7 ± 79.7 /10 min"
"COc1ccc(-c2cc(=O)c3c(OC)cc(O)cc3o2)cc1OC [Example 5, 7-hydroxyl-5,3′,4′-trimethoxyl-flavone]",6,60** %,8,80*** %,9,90*** %,265.2 ± 50.1 /10 min,243.2 ± 42.8 /10 min,292.8 ± 82.1 /10 min,175.4 ± 50.3 /10 min,190.2 ± 56.8 /10 min,295.3 ± 91.3 /10 min,120.2 ± 39.0 /10 min,116.3 ± 49.2 /10 min,59.92 ± 17.44 min,3.39 ± 1.71 min,74.82 ± 22.78 min,3.26 ± 1.47 min,89.01 ± 18.25 min,2.23 ± 1.19 min,"Times of activities in 24 h after drug administration/10 min (Kunming mice [2]; 100 mg/kg, n = 10): 283.5 ± 94.0 /10 min"
C=Cc1cc(C2CC(=O)c3cc(C(N)=O)c(C4CCSC4)c(Oc4ccccc4)c3O2)ccc1N (stereo not drawn) [Example 57],4,40* %,6,60** %,7,70** %,299.9 ± 58.2 /10 min,288.1 ± 73.0 /10 min,311.7 ± 81.2 /10 min,245.4 ± 45.9 /10 min,240.8 ± 63.24 /10 min,315.9 ± 85.6 /10 min,206.6 ± 44.2 /10 min,199.6 ± 49.9 /10 min,41.14 ± 23.51 min,4.61 ± 1.53 min,48.87 ± 19.80 min,4.13 ± 1.71 min,54.44 ± 21.81 min,3.43 ± 1.20 min,"Times of activities in 24 h after drug administration/10 min (Kunming mice [2]; 100 mg/kg, n = 10): 325.7 ± 82.6 /10 min"
"COc1cc(OC)c2c(=O)cc(-c3ccc(OC)c(OC)c3)oc2c1 [Example 7, 5,7,3′,4′-tetramethoxyl-flavone]",5,50** %,6,60** %,9,90*** %,,,,,,,,,61.21 ± 22.82 min,3.25 ± 1.93 min,79.27 ± 21.17 min,3.03 ± 1.41 min,87.43 ± 21.56 min,2.32 ± 1.21 min,"Times of activities in 1 h after drug administration/10 min (Kunming mice [2]; 25 mg/kg, n = 10, 25 mg/kg): 248.5 ± 55.1 /10 min; Times of activities in 2 h after drug administration/10 min (Kunming mice [2]; 25 mg/kg, n = 10, 25 mg/kg): 234.1 ± 45.8 /10 min; Times of activities in 24 h after drug administration/10 min (Kunming mice [2]; 25 mg/kg, n = 10, 25 mg/kg): 303.4 ± 75.8 /10 min; Times of activities in 1 h after drug administration/10 min (Kunming mice [2]; 50 mg/kg, n = 10, 50 mg/kg): 184.7 ± 52.6 /10 min; Times of activities in 2 h after drug administration/10 min (Kunming mice [2]; 50 mg/kg, n = 10, 50 mg/kg): 164.4 ± 45.8 /10 min; Times of activities in 24 h after drug administration/10 min (Kunming mice [2]; 50 mg/kg, n = 10, 50 mg/kg): 318.5 ± 83.6 /10 min; Times of activities in 1 h after drug administration/10 min (Kunming mice [2]; 100 mg/kg, n = 10, 100 mg/kg): 125.2 ± 44.5 /10 min; Times of activities in 2 h after drug administration/10 min (Kunming mice [2]; 100 mg/kg, n = 10, 100 mg/kg): 122.2 ± 48.6 /10 min; Times of activities in 24 h after drug administration/10 min (Kunming mice [2]; 100 mg/kg, n = 10, 100 mg/kg): 329.8 ± 53.2 /10 min"
C=Cc1ccc(-c2cc(=O)c3cc(C#N)c(Cc4ccccc4)c(C=CC)c3o2)cc1[N+](=O)[O-] [Example 32],3,30%,5,50** %,6,60** %,332.1 ± 47.8 /10 min,321.3 ± 53.9 /10 min,327.8 ± 93.9 /10 min,270.2 ± 59.3 /10 min,269.3 ± 50.3 /10 min,334.7 ± 95.6 /10 min,245.9 ± 38.8 /10 min,258.9 ± 49.9 /10 min,25.80 ± 22.64 min,5.38 ± 2.21 min,46.11 ± 24.53 min,4.34 ± 1.45 min,54.78 ± 20.89 min,3.86 ± 2.35 min,"Times of activities in 24 h after drug administration/10 min (Kunming mice [2]; 100 mg/kg, n = 10): 322.7 ± 88.5 /10 min"
COc1c(O)cc(C2CC(=O)c3c(O)cc(O)cc3O2)cc1C(=O)O (stereo not drawn) [Example 50],2,20%,4,40* %,7,70** %,319.2 ± 55.4 /10 min,290.6 ± 41.2 /10 min,303.2 ± 78.6 /10 min,297.5 ± 42.5 /10 min,253.5 ± 40.4 /10 min,304.7 ± 92.8 /10 min,279.4 ± 48.3 /10 min,224.7 ± 46.3 /10 min,22.71 ± 26.17 min,5.41 ± 2.17 min,28.68 ± 27.56 min,5.07 ± 2.34 min,65.35 ± 46.27 min,3.25 ± 1.16 min,"Times of activities in 24 h after drug administration/10 min (Kunming mice [2]; 100 mg/kg, n = 10): 312.4 ± 79.1 /10 min"
